Target: T1, human chemokine receptor CCR3 (Homo sapiens, UniProt P51677)
T1 construct: expressed in transfected cells; host or cells: K562 cell line (hCCR3-C1 cells), membrane preparation
T1 sequence (P51677 1-355): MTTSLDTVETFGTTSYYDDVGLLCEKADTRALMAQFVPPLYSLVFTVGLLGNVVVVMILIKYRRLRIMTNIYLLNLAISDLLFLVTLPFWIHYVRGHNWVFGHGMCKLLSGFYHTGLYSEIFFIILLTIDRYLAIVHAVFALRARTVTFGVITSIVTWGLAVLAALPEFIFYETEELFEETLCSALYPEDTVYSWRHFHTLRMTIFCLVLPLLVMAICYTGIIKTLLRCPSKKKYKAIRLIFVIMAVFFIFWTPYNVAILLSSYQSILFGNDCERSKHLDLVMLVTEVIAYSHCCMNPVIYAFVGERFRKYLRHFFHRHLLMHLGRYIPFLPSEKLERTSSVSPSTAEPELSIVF
Assay: CCR3 receptor binding assay (SPA, 125I-eotaxin-1 displacement, hCCR3-C1 K562 cell membranes)
Conditions: human Eotaxin-1 at human CCR3-Rezeptor; for inhibition at 1 µM: 1 μM test compound, read-out: CCR3 % inh @ 1 μM; for Ki: dose range 0.1 to 10000 nM
Experimental: The CCR3 receptor binding test is based on a K562 cell line (leukemia myelogenic blast cells) transfected with the human chemokine receptor CCR3 (hCCR3-C1 cells). The cell membranes were prepared by disrupting the hCCR3-C1 cells by […]. The preparation was centrifuged at 400 g 4° C. for 30 min. The supernatant was transferred into fresh tubes followed by a second centrifugation at 48000 g, 4° C. for 1 h. The membranes were re-suspended in the SPA incubation buffer (25 mM HEPES, 25 mM MgCl2 6×H2O, 1 mM CaCl2 2×H2O) without bovine serum albumin and homogenized by passing through a single use needle (Terumo, 23Gx1″). The membranes were stored in aliquots at −80° C.
The CCR3 receptor binding assay was performed in a Scintillation Proximity Assay (SPA) design with the radioligand recombinant human ^125Iodine-eotaxin-1. Cell membranes of hCCR3 C1 cells were again homogenized by passing through a single use needle (Terumo, 23Gx1″) and diluted in SPA incubation buffer in suitable concentrations (0.5-10 μg protein/well) in 96 well microtiter plates (1450-514, Perkin Elmer). The SPA assay was set up in the SPA incubation buffer with a final volume of 200 μl and final concentration of 25 mM HEPES, 25 mM MgCl2 6×H2O, 1 mM CaCl2 2×H2O and 0.1% bovine serum albumin. The SPA assay mixture contained 60 μl of the membrane suspension, 80 μl of Wheat Germ Agglutinin coated PVT beads (organic scintillator, GE Healthcare, RPNQ-0001) 0.2 mg/well), 40 μl of recombinant human ^125Jodine-eotaxin-1 (Biotrend), diluted in SPA buffer to a final concentration of 30.000 dpm per well, and 20 μl of the test compound (dissolved in DMSO dilutions). The SPA assay mixture was incubated for 2 h at room temperature. Bound radioactivity was determined with a scintillation counter (Micro Beta “Trilux”, Wallac). Included were controls for total binding (no displacer added, Bo) and non-specific binding (NSB) by adding unlabelled recombinant human Eotaxin-1 (Biotrend, Cat #300-21) or a reference compound.
Determination of the affinity of a test compound was calculated by subtraction of the non-specific binding (NSB) from the total binding (Bo) or the binding in the presence of the test compound (B) at a given compound concentration. […] The Bo-NSB value was set to 0% inhibition.
% inhibition and Ki values are (human Eotaxin-1 at human CCR3-Rezeptor): […]

SMILES	inhibition at 1 µM [%]	Ki [nM]
Cc1cc(CN2CCC(N3C(=O)CC[C@@H]3C(=O)Nc3cccc(-c4nnnn4C)c3)CC2)ccc1Cl [Example 1]	101	4
CNC(=O)c1cc(NC(=O)[C@H]2CCC(=O)N2C2CCN(Cc3ccc(Cl)c(C)c3)CC2)cc(C(F)(F)F)c1 [Example 2]	98	4
CCOC(=O)c1nnc(NC(=O)[C@H]2CCC(=O)N2C2CCN(Cc3ccc(Cl)c(C)c3)CC2)s1 [Example 3]	75	240
CCNS(=O)(=O)c1cccc(NC(=O)[C@H]2CCC(=O)N2C2CCN(Cc3ccc(Cl)c(C)c3)CC2)c1 [Example 4]	99	5
Cc1cc(CN2CCC(N3C(=O)CC[C@@H]3C(=O)Nc3cccc(-c4nnn(C)n4)c3)CC2)ccc1Cl [Example 5]	98	6
CCNS(=O)(=O)c1cccc(NC(=O)[C@H]2CCC(=O)N2C2CCN(Cc3ccc(Cl)c(Cl)c3)CC2)c1 [Example 6]	100	7
CNC(=O)c1cc(NC(=O)[C@H]2CCC(=O)N2C2CCN(Cc3ccc(Cl)c(C)c3)CC2)cc(C(=O)NC)c1 [Example 7]	97	7
Cc1cc(CN2CCC(N3C(=O)CC[C@@H]3C(=O)Nc3cccc(N(CC(=O)N(C)C)S(C)(=O)=O)c3)CC2)ccc1Cl [Example 8]	99	9
Cc1cc(CN2CCC(N3C(=O)CC[C@@H]3C(=O)Nc3cccc(-c4ccn(C)n4)c3)CC2)ccc1Cl [Example 9]	95	12
CC(=O)Nc1nc2c(s1)-c1cc(NC(=O)[C@H]3CCC(=O)N3C3CCN(Cc4ccc(Cl)c(C)c4)CC3)ccc1CC2 [Example 10]	98	16
Cc1cc(CN2CCC(N3C(=O)CC[C@@H]3C(=O)Nc3cc(C4CC4)nn3C)CC2)ccc1Cl [Example 11]	92	27
CCNS(=O)(=O)c1cccc(NC(=O)[C@@H]2CCC(=O)N2C2CCN(Cc3ccc(Cl)c(C)c3)CC2)c1 [Example 12]	84	88
Cc1cc(CN2CCC(N3C(=O)CC[C@@H]3C(=O)N3CCc4ccccc43)CC2)ccc1Cl [Example 13]	71	373
Cc1cc(CN2CCC(N3C(=O)CC[C@@H]3C(=O)N[C@H]3CCN(C(=O)OC(C)(C)C)C3)CC2)ccc1Cl [Example 14]	60	540
Cc1cc(CN2CCC(N3C(=O)CC[C@@H]3C(=O)N3CCCc4ccccc43)CC2)ccc1Cl [Example 15]	38	1110
Cc1cc(CN2CCC(N3C(=O)CC[C@@H]3C(=O)Nc3cccc(-c4nc[nH]n4)c3)CC2)ccc1Cl [Example 16]	98	20
Cc1cc(CN2CCC(N3C(=O)CC[C@@H]3C(=O)Nc3cccc(N4CCNC4=O)c3)CC2)ccc1Cl [Example 17]	100	5
Cc1cc(CN2CCC(N3C(=O)CC[C@@H]3C(=O)Nc3cccc(N4CCN(C)C4=O)c3)CC2)ccc1Cl [Example 18]	96	7
Cc1cc(CN2CCC(N3C(=O)CC[C@@H]3C(=O)Nc3cccc(N4CCCCC4)c3)CC2)ccc1Cl [Example 19]	98	7
CCN(C)S(=O)(=O)c1cccc(NC(=O)[C@H]2CCC(=O)N2C2CCN(Cc3ccc(Cl)c(C)c3)CC2)c1 [Example 20]	97	9
CCS(=O)(=O)N(CC(=O)N(C)C)c1cccc(NC(=O)[C@H]2CCC(=O)N2C2CCN(Cc3ccc(Cl)c(C)c3)CC2)c1 [Example 21]	96	11
Cc1cc(CN2CCC(N3C(=O)CC[C@@H]3C(=O)Nc3cccc(S(=O)(=O)N4CCCCC4)c3)CC2)ccc1Cl [Example 22]	84	13
Cc1cc(CN2CCC(N3C(=O)CC[C@H]3C(=O)Nc3ccc4c(c3)CCC(=O)N4)CC2)ccc1Cl [Example 23]	95	18

SMILES	inhibition at 1 µM [%]	Ki [nM]
Cc1nccc(-c2cccc(NC(=O)[C@H]3CCC(=O)N3C3CCN(Cc4ccc(Cl)c(C)c4)CC3)c2)n1 [Example 24]	99	22
Cc1cc(CN2CCC(N3C(=O)CC[C@@H]3C(=O)Nc3cccc(S(=O)(=O)CCO)c3)CC2)ccc1Cl [Example 26]	97	27
Cc1cc(CN2CCC(N3C(=O)CC[C@@H]3C(=O)Nc3cccc(-c4c[nH]cn4)c3)CC2)ccc1Cl [Example 27]	96	28
Cc1cc(CN2CCC(N3C(=O)CC[C@@H]3C(=O)Nc3cccc(-c4cnco4)c3)CC2)ccc1Cl [Example 28]	97	29
Cc1cc(CN2CCC(N3C(=O)CC[C@@H]3C(=O)NC3CCC(NS(=O)(=O)c4ccccc4)CC3)CC2)ccc1Cl (some centres unmarked) [Example 29]	94	31
Cc1cc(CN2CCC(N3C(=O)CC[C@@H]3C(=O)Nc3ccc4[nH]ncc4c3)CC2)ccc1Cl [Example 31]	93	50
Cc1cc(CN2CCC(N3C(=O)CC[C@@H]3C(=O)Nc3cc(C(N)=O)cc(C(N)=O)c3)CC2)ccc1Cl [Example 32]	82	145
Cc1cc(CN2CCC(N3C(=O)CC[C@@H]3C(=O)Nc3ccc(N4CCCOC4=O)c(C)c3)CC2)ccc1Cl [Example 33]	83	150
COc1cc(NC(=O)[C@H]2CCC(=O)N2C2CCN(Cc3ccc(Cl)c(C)c3)CC2)ccc1N1CCCCC1=O [Example 34]	80	152
Cc1cc(CN2CCC(N3C(=O)CC[C@@H]3C(=O)Nc3cccnc3)CC2)ccc1Cl [Example 36]	80	159
CNC(=O)N1CCc2cc(NC(=O)[C@H]3CCC(=O)N3C3CCN(Cc4ccc(Cl)c(C)c4)CC3)ccc21 [Example 37]	80	175
Cc1cc(CN2CCC(N3C(=O)CC[C@H]3C(=O)NCc3ccccc3OC(F)F)CC2)ccc1Cl [Example 38]	78	211
Cc1cc(CN2CCC(N3C(=O)CC[C@@H]3C(=O)Nc3cccc(CNC(=O)NC4CCCCC4)c3)CC2)ccc1Cl [Example 39]	80	227
Cc1cccc(NC(=O)[C@@H]2CCC(=O)N2C2CCN(Cc3ccc(Cl)c(C)c3)CC2)n1 [Example 40]	75	229
CCn1nccc1CNC(=O)[C@H]1CCC(=O)N1C1CCN(Cc2ccc(Cl)c(C)c2)CC1 [Example 41]	66	395
Cc1cc(CN2CCC(N3C(=O)CC[C@H]3C(=O)Nc3n[nH]c4ccccc34)CC2)ccc1Cl [Example 42]	63	482
COc1ccccc1C1CCCN(C(=O)[C@H]2CCC(=O)N2C2CCN(Cc3ccc(Cl)c(C)c3)CC2)C1 (some centres unmarked) [Example 43]	59	523
Cc1cc(CN2CCC(N3C(=O)CC[C@@H]3C(=O)N[C@H]3CC[C@H](NC(=O)Nc4ccccc4)CC3)CC2)ccc1Cl [Example 44]	63	552
Cc1cc(CN2CCC(N3C(=O)CC[C@H]3C(=O)NCc3ccnn3C)CC2)ccc1Cl [Example 45]	50	–
Cc1cc(CN2CCC(N3C(=O)CC[C@H]3C(=O)NCc3ccccc3)CC2)ccc1Cl [Example 46]	44	873
Cc1cc(CN2CCC(N3C(=O)CC[C@H]3C(=O)NCc3noc(C4CCCC4)n3)CC2)ccc1Cl [Example 47]	31	1190
Cc1cc(CN2CCC(N3C(=O)CC[C@H]3C(=O)NC3CCC(F)(F)CC3)CC2)ccc1Cl [Example 48]	40	965
